Read-outs that look alike come from different tables or passages of the source.

Experiment in all cases: Thermal stability shift assay
Common to all, as to format: binding

The target in one assay is AAK1 (Homo sapiens, UniProt Q2M2I8). The settings on record: read-out: Tm shift AAK1. Summed up:
(§1)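 Each value reflects thermal unfolding of 2 μM protein with 10 μM inhibitor, detected by SyproOrange (1:1000 dilution) fluorescence in 10 mM HEPES pH 7.5, 500 mM NaCl.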

A further assay concerns the target T1, DMPK1 (Homo sapiens, UniProt Q09013).
T1 construct: purchased in-house (SGC Oxford thermal shift panel)
T1 sequence (Q09013 1-629): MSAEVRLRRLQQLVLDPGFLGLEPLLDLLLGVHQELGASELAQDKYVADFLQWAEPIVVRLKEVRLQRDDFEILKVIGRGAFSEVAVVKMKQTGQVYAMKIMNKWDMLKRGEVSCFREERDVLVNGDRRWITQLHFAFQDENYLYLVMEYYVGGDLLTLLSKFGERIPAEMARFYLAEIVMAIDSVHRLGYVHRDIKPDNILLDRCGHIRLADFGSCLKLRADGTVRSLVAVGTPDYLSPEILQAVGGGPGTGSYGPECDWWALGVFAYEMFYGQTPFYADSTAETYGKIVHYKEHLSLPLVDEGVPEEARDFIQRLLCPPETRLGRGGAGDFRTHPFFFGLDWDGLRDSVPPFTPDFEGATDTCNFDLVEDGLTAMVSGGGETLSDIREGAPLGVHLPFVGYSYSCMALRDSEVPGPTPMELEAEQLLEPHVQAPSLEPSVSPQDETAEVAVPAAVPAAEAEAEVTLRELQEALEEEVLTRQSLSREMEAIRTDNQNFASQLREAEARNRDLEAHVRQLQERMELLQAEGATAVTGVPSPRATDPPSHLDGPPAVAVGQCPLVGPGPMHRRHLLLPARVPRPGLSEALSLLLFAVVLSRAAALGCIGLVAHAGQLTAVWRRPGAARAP
Particulars: read-out: Tm shift DMPK1. Summed up:
as §1

Another assay deals with T2, LYN (Homo sapiens, UniProt P07948).
T2 construct: purchased in-house (SGC Oxford thermal shift panel)
The settings on record: read-out: Tm shift LYN. An outline of the steps: as §1

Another assay deals with T3, MAP2K6 (Homo sapiens, UniProt P52564).
T3 construct: purchased in-house (SGC Oxford thermal shift panel)
T3 sequence (P52564 1-334): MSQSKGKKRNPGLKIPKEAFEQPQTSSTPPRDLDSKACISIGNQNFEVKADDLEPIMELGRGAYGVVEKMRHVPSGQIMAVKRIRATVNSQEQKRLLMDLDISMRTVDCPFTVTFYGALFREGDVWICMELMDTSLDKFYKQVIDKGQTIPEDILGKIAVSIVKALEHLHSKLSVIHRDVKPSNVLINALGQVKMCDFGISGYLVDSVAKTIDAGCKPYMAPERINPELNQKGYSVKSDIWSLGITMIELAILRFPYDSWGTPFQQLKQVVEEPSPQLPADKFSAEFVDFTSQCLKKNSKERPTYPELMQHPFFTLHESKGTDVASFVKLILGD
Particulars: read-out: Tm shift MAP2K6. Summed up:
as §1

The next assay deals with T4, PBK (Homo sapiens, UniProt Q96KB5).
T4 construct: purchased in-house (SGC Oxford thermal shift panel)
T4 sequence (Q96KB5 1-322): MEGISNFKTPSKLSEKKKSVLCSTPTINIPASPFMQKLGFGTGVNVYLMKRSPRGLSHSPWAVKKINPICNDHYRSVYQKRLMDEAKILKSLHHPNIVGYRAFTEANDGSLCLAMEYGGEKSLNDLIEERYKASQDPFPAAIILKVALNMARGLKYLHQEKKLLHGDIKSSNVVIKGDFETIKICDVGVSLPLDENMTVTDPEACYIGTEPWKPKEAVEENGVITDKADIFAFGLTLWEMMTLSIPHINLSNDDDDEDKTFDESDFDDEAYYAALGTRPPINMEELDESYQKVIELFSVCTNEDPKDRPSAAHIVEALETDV
Particulars: read-out: Tm shift PBK. An outline of the steps: as §1

In a further assay the target is PIM3 (Homo sapiens, UniProt Q86V86). Particulars: read-out: Tm shift PIM3. An outline of the steps:
as §1

Another assay has as its target T5, PKD2 (Homo sapiens, UniProt Q9BZL6).
T5 sequence (Q9BZL6 1-878): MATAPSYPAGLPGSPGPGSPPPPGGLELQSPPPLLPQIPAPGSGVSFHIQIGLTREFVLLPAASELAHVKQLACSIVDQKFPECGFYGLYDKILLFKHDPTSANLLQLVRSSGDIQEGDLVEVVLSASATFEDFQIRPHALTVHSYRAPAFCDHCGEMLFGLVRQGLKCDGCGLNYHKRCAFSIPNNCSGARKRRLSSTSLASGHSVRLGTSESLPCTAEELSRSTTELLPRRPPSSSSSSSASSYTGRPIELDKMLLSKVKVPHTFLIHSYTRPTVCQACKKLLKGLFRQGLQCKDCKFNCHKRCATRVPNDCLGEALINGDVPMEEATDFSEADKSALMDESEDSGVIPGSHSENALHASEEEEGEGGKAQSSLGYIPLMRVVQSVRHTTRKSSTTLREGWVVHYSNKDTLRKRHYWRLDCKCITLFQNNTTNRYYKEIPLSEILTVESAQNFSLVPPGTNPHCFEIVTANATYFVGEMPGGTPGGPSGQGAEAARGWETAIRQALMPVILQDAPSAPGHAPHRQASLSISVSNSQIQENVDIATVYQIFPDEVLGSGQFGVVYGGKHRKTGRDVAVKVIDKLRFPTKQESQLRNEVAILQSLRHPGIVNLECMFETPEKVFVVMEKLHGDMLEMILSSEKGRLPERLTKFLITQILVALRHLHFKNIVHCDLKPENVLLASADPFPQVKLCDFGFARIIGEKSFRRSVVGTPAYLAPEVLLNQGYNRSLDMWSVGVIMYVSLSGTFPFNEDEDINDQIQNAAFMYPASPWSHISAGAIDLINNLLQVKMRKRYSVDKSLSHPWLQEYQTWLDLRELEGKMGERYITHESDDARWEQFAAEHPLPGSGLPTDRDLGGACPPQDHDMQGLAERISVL
The settings on record: read-out: Tm shift PKD2. An outline of the steps: as §1

The target in another assay is T6, RSK1-C (Homo sapiens, UniProt Q15418).
T6 construct: RSK1-C 0.7 4.0 1.6 1.9 1.9 0.3 0.9
The settings on record: read-out: Tm shift RSK1-C. An outline of the steps: as §1

The target in a further assay is T7, RSK2~C (Homo sapiens, UniProt P51812).
T7 construct: RSK2~C 2.7 12.3 2.0 1.0 1.3 -0.2 0.4
Particulars: read-out: Tm shift RSK2~C. Summed up: as §1

T2 sequence (P07948 whole entry): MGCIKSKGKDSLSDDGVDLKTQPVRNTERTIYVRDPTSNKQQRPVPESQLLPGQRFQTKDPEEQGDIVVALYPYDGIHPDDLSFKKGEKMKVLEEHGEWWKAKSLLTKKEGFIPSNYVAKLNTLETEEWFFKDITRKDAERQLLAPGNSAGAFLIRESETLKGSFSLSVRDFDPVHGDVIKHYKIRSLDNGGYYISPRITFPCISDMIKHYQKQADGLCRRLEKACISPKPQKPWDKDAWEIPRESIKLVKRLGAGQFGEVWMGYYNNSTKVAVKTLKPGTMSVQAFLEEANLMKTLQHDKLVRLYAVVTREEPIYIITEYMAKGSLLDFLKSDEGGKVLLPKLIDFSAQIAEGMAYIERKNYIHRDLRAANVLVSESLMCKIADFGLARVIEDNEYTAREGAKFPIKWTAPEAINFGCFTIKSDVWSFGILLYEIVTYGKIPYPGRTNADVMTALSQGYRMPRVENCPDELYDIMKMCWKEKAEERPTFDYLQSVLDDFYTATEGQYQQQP
T7 sequence (P51812 422-679 limits assumed): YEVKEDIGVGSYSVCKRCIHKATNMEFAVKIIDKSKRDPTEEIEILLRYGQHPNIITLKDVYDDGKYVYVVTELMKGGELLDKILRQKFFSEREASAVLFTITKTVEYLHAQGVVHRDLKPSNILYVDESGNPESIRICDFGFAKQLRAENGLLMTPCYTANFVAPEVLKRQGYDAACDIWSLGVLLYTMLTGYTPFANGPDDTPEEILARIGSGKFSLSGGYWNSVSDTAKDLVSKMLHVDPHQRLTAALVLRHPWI
Sequence of AAK1 (Q2M2I8 whole entry): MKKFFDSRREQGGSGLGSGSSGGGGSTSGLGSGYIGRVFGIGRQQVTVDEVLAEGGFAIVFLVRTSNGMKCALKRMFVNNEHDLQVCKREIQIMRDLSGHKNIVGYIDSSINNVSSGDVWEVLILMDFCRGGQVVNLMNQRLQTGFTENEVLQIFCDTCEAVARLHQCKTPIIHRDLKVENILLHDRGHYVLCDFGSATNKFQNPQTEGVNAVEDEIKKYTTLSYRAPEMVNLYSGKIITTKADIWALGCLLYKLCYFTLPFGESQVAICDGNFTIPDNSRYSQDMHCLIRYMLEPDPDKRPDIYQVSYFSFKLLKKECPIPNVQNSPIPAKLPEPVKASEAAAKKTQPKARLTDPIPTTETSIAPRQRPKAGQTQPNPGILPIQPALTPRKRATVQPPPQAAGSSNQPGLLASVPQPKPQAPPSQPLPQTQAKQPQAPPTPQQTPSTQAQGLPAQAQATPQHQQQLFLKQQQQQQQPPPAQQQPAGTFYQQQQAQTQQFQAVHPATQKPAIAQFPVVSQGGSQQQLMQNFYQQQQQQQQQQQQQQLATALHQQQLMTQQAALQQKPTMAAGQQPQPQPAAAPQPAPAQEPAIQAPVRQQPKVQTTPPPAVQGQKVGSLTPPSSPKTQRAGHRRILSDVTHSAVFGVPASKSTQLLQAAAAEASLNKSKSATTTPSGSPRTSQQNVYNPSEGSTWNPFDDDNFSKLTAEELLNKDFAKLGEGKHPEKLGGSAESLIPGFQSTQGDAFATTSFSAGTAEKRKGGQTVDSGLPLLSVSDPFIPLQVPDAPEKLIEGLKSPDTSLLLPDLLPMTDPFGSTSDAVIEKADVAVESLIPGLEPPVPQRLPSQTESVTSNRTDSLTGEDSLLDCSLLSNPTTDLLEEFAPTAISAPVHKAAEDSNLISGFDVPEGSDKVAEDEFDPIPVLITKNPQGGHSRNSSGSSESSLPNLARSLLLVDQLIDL
T6 sequence (Q15418 418-675 limits assumed): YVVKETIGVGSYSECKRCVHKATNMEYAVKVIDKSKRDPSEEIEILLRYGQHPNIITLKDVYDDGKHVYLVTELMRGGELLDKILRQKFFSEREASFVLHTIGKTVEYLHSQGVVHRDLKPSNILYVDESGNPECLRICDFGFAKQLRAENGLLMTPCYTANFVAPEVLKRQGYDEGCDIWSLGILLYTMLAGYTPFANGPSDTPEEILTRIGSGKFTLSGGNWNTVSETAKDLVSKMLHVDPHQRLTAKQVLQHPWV

Turning to `Cn1c2c(Cl)c(Cl)ccc2c2c(C#N)c[nH]c(=O)c21` [compound 3, 7,8-Dichloro-9-Methyl-1-Oxo-2,9-Dihydro-1H-Pyrido[3,4-b]Indole-4-Carbonitrile], the ΔTm at 10 µM on AAK1 (inhibitor 10 μM) was 1.4 °C; on DMPK1 (inhibitor 10 μM), 0.9 °C; on LYN (inhibitor 10 μM) it was 0.2 °C; on MAP2K6 (inhibitor 10 μM) it was 0.1 °C; at PBK (inhibitor 10 μM), -0.4 °C; at PIM3 (inhibitor 10 μM) it was 4.2 °C. The ΔTm at 10 µM was 0.1 °C at PKD2 (inhibitor 10 μM), 1.9 °C on RSK1-C (inhibitor 10 μM) and 1.3 °C at RSK2~C (inhibitor 10 μM).

As to `CCOC(=O)c1c(C(C#N)=CN)c2ccc(Cl)c(Cl)c2n1C` (mixture of isomers) [KH-CB20, (E/Z)-Ethyl 3-(2-Amino-1-Cyanovinyl)-6,7-Dichloro-1-Methyl-1H-Indole-2-Carboxylate], the ΔTm at 10 µM on AAK1 is 1.3 °C; at DMPK1, -0.4 °C; on LYN, 0 °C; on MAP2K6 it was 0.6 °C; on PBK it was -0.1 °C; on PIM3, 2.8 °C. For the same molecule, the results for the ΔTm at 10 µM on PKD2, at RSK1-C and on RSK2~C were -0.2 °C, 1.9 °C and 1 °C, respectively.

For `NC1=NC(=O)/C(=C2\CCNC(=O)c3[nH]c(Br)cc32)N1` [Hymenialdisine, hymenialdisine, reference compound], the ΔTm at 10 µM is 2.7 °C on AAK1 (inhibitor 10 μM); 0.2 °C on DMPK1 (inhibitor 10 μM); 0.3 °C on LYN (inhibitor 10 μM); 0.6 °C on MAP2K6 (inhibitor 10 μM); -0.4 °C on PBK (inhibitor 10 μM); 3.8 °C at PIM3 (inhibitor 10 μM). Moreover, the ΔTm at 10 µM on PKD2 (inhibitor 10 μM) worked out at 0.8 °C; at RSK1-C (inhibitor 10 μM), 0.7 °C; at RSK2~C (inhibitor 10 μM) it was 2.7 °C.

`CCOC(=O)c1c(/C(C#N)=C\N)c2ccc(Cl)c(Cl)c2n1C` [KH-CB19, (E)-Ethyl 3-(2-Amino-1-Cyanovinyl)-6,7-Dichloro-1-Methyl-1H-Indole-2-Carboxylate]: the ΔTm at 10 µM on AAK1 was 1.3 °C; at DMPK1 it was -0.4 °C; on LYN, 0.2 °C; at MAP2K6, 0.5 °C; at PBK it was -0.3 °C; on PIM3, 3.1 °C. The ΔTm at 10 µM on PKD2 was 0.1 °C; on RSK1-C it was 1.6 °C; at RSK2~C it was 2 °C.

In the case of `CCOC(=O)c1c(C(C#N)=CN(C)C)c2ccc(Cl)c(Cl)c2n1C` (mixture of isomers) [compound 2, (E/Z)-Ethyl 6,7-Dichloro-3-[1-Cyano-2-(Dimethylamino)Vinyl]-1-Methyl-1H-Indole-2-Carboxylate], the ΔTm at 10 µM was 0.3 °C on AAK1 (inhibitor 10 μM); -0.3 °C on DMPK1 (inhibitor 10 μM); 0 °C on LYN (inhibitor 10 μM); 0.4 °C at MAP2K6 (inhibitor 10 μM); -0.9 °C on PBK (inhibitor 10 μM); 3.2 °C on PIM3 (inhibitor 10 μM). Besides, the ΔTm at 10 µM at PKD2 (inhibitor 10 μM) is 0 °C; at RSK1-C (inhibitor 10 μM), 0.3 °C; on RSK2~C (inhibitor 10 μM), -0.2 °C.

The values are drawn from PMC3145970, “Specific CLK Inhibitors from a Novel Chemotype for Regulation of Alternative Splicing” (Chemistry & Biology, 2011).
